Data from patent publication US11365216B2, “Antiviral immunotropic agent for the treatment of acute respiratory viral infections” (PVP LABS PTE. LTD., priority 2018, dated 2022).
Where a SMILES comes first, the peptide text is derived from it. [ ]: non-standard residue; d: D form.

What was measured:
[1] = system: influenza A virus/New Caledonia/20/99 (H1N1); test: microbe, parasite or virus in culture; type: cell-based
[2] = system: macrophages; test: phagocytosis and NBT reduction of peritoneal exudate macrophages; type: in vivo, mice; settings: 0.2 mg/kg single dose, IM or intranasal
Protocol: (§1) Dalargin is currently authorised for human use in the single dose range from 1 to 5 mg, which, if recalculated for mice, corresponds to z0.2-1 mg/kg. Therefore, the dose used for evaluating the efficacy of the drug in murine phagocytic peritoneal exudate cells was 0.2 mg/kg. Of additional interest was an investigation of possible effect of the route of administration of the drug on functional activity of the phagocytes.
(§2) The immunomodulating activity of the drug was evaluated by microscopy. The test was performed in 60 male BALB/c mice with a body weight of 18-22 g. The animals were allocated to 6 equal groups of 10 mice each. Two groups served as controls. The active therapy groups received Dalargin IM or intranasally at a single dose of 0.2 mg/kg. Macrophage and neutrophil extraction procedures were performed on the next day after administering the study drugs.
In order to isolate macrophages, the mice were euthanised on day 3 after the peptone injection. Then 3-4 mL of medium 199 with 10% of foetal bovine serum was administered intraperitoneally, and the liquid was aspirated. […]
(§3) The phagocytic activity of neutrophils was evaluated by the following parameters: phagocytic index and phagocyte number. Functional activity of macrophages was evaluated by microscopy, as well as by their ability to absorb nitroblue tetrazolium (NBT) in the activated state.

[3] = system: IFN-α; test: interferon-inducing effect in mice (ELISA of blood plasma); type: in vivo; settings: 24 hours after administration; Dalargin 1 mg/kg, ARBIDOL intragastrically; versus control groups
Protocol: The experiments were performed in 40 CBA×C57BI/6/male mice with a body weight of 20-25 g. The animals were randomised in 4 groups (of 10 animals each): two active groups (receiving Dalargin or ARBIDOL) and two control groups. One control group was intended for determining baseline INF levels (before the start of the experiment), the other group was intended for determining INF levels at 24 hours after the administration of placebo (saline), ensuring the equivalence of conditions.
Dalargin was administered at a dose of 1 mg/kg, which is equivalent to a human dose of 5-6 mg. ARBIDOL was administered intragastrically as a suspension premix in 1% starch gel. Statistical analysis was performed using the Bonferroni correction for multiple testing.
IFN-α levels in the blood plasma of mice was measured at 24 hours after the administration of the drugs. Blood for interferon determination was sampled from the heart under Nembutal anaesthesia (60 mg/kg). […] IFN levels were determined using commercially available enzyme-linked immunosorbent assay (ELISA) kits manufactured by VeriKine™ (USA). […]
The test samples and diluted standards were applied to the plate in duplicate. […] The activity of bound peroxidase was measured on a UNIPLAN™ (Picon) immunoassay analyser at 450 nm.

[4] = system: neutrophils; test: phagocytic activity of peptone-mobilised neutrophils; type: in vivo, mice; settings: 0.2 mg/kg single dose, IM or intranasal
Protocol: as §1, §2
The mice were given an intraperitoneal injection of 3-4 mL of 10% peptone solution as a chemoattractant to cause neutrophil accumulation, and 2 hours later the mice were euthanised using chloroform 2 hours later. […]
as §3

[5] = system: natural killer cells; test: functional (cytotoxic) activity of natural killer cells, radiometric assay with K-562 target cells; type: cell-based, healthy donors; settings: 5.10^−8 M (≈0.036 μg/mL), 24 hours
Protocol: When evaluating the effect of Dalargin in vitro on the functional activity of NK cells, these cells were obtained from a suspension of peripheral blood mononuclear cells of healthy donors (n=20).
Functional activity of NK cells was determined on the basis of the cytotoxic reaction (NK can lyse cells of myeloblastoid and lymphoblastoid lines) using the radiometric assay. To perform it, cells of the K-562 myeloblastoid line at a concentration of 10^6/mL were incubated for one hour at 37° C. with ^3H-uridine at 3 μCi/mL of the cell suspension on day 2 after subcultivation. After the incubation, the cells were washed off the radiolabel in medium 199 three times. […]
In one case, after the effector cells and target cells were applied to the plates, Dalargin was added at a molar concentration of 5.10^−8 M (≈0.036 μg/mL). […] The plates were then incubated for 24 hours in a CO2 incubator at 37° C., whereupon the contents were transferred to fibreglass filters, washed, dried, placed in vials with a scintillation liquid, and radioactivity was determined using a β-particle counter. cytotoxicity index (CI) was determined using the formula CI=((A−B)/(C−B)). 100%, where A is radioactivity of target cells in the presence of effector cells, B is residual radioactivity after treating the target cells with Triton X-100, C is radioactivity in target cells in the absence of effector cells.

[6] = system: influenza A virus/Aichi/2/69 (H3N2); test: influenza-induced pneumonia in mice; type: in vivo
[7] = system: type 5 adenovirus; test: suppression of cytopathogenic effect of adenovirus in monolayer HeLa culture; type: cell-based
Protocol: The work was performed using type 5 adenovirus, which was procured in 1998 from the D.I. Ivanovsky Research Institute of Virology and stored in the Specialised Collection of a branch of the 48th Central Research Institute of the Ministry of Defence of Russia—Computing Centre.
A HeLa type culture (cervical carcinoma cells) with a density of 200-250 thousand/mL was used. Semisynthetic growth media based on Hank's solution containing 7.5 and 2% bovine serum respectively were used. A 48-hour monolayer culture of HeLa cells was infected with type 5 adenovirus at a dose of 0.01 TCID50 per cell. The monolayer culture was then incubated at 37±0.5° C. for 96 hours.
The antiviral activity of the product was evaluated by the suppression of the cytopathogenic effect (CPE) of the virus in the HeLa culture after the virus was applied to an established monolayer culture of HeLa cells.
Efficacy criteria of the test drug were: CPE detection rate and inhibitory constant (Ki, %). The inhibitory constant was calculated according to the following formula: Ki=100. (Cc-Ct)/Cc, where Cc and Ct is the infectious titre of the virus in the control sample and test sample respectively.

[8] = system: IL-1; test: production of pro-inflammatory cytokines in peripheral blood mononuclear cell culture; type: cell-based, healthy donors; settings: 5.10^−8 M, relative to control samples (100%)
Protocol: (§4) The effect of Dalargin on the synthesis of cytokines IL-1 (interleukin-1), IL-6 (interleukin-6) and TNF-α (tumour necrosis factor α) was evaluated in an in vitro experiment using a peripheral blood mononuclear cell culture of healthy donors (n=20). Stimulation with an enterobacterial polysaccharide was used to induce the production of pro-inflammatory cytokines.
(§5) In order to obtain a suspension of mononuclear cells, blood was diluted at a 1:2 ratio with medium 199, applied to a Ficoll-Paque density gradient, d=1.077 g/cm^3, and centrifuged at 400 g for 40 min. The white ring produced at the phase interface, which contained mononuclear cells, was carefully withdrawn with a Pasteur pipette and washed twice with medium 199 using 10-minute-long centrifugation (200 g). The precipitate was resuspended in a nutrient medium, counted in a Goryayev counting chamber and adjusted to the required concentration.
(§6) Dalargin was added at a molar concentration of 5.10^−8 M (Z0.036 μg/mL) to the test samples with the polysaccharide and mononuclear cell suspension. The drug was not added to control samples.
(§7) Cytokine quantitation in blood serum was performed using two-site ELISA.

[9] = system: TNF-α; test: as above; type: cell-based, healthy donors; settings: 5.10^−8 M, relative to control samples (100%)
Protocol: as §4, §5, §6, §7

[10] = system: IL-6; test: as above; type: cell-based, healthy donors; settings: 5.10^−8 M, relative to control samples (100%)
Protocol: as §4, §5, §6, §7

CCOC(=O)c1c(CSc2ccccc2)n(C)c2cc(Br)c(O)c(CN(C)C)c12 [ARBIDOL, reference compound]
inhibition at 10 µg/mL ([1]; Influenza A virus, H1N1, MDCK, concentration of 10.0 μg/mL, read-out: inhibiting effect on the reproduction of epidemic virus strains): 100%

CC(C)C[C@H](NC(=O)[C@H](Cc1ccccc1)NC(=O)CNC(=O)[C@@H](C)NC(=O)[C@@H](N)Cc1ccc(O)cc1)C(=O)N[C@@H](CCCNC(=N)N)C(=O)O [Dalargin, tyrosyl-D-alanyl-glycyl-phenylalanyl-leucyl-arginine] (H-Y[dA]GFLR-OH)
phagocytosis of peritoneal exudate macrophages, ability to reduce NBT [2]: stimulating effect
MIC values (MIC50, concentration inhibiting virus reproduction by 50%), comparison ([1]; MDCK tissue culture, hexapeptide versus ARBIDOL): lower MIC values
IFN-α level in blood plasma/serum [3]: significant production
phagocytic activity (phagocytosis) of peptone-mobilised neutrophils [4]: capable of increasing the phagocytic activity
effect on cytotoxic activity of natural killer cells [5]: immunotropic potential
efficacy relative to Arbidol in terms of mean lifetime and survival rate ([6]; Dalargin 2 mg/kg/day IM or intranasal): greater efficacy
mortality due to influenza-induced pneumonia ([6]; IM or intranasal 2 mg/kg/day for 5 days, relative to placebo): reduces the mortality
weight loss ([6]; relative to control/placebo, weighed on days 3, 5 and 15): reduces weight loss
protective efficacy ([7]; 10 μg/mL): 40.0%
growth of protective efficacy, administration 24 h before challenge relative to 2 hours after challenge ([7]; added to the maintenance medium): 10-20%
protection of cells from the cytopathogenic effect of the virus ([7]; administered 24 h before challenge, 0.01 TCID50 per cell, concentrations of 100, 20 and 10): almost completely protected
lipopolysaccharide-induced production of IL-1 [8]: significant suppression
lipopolysaccharide-induced production of TNF-α [9]: significant suppression
lipopolysaccharide-induced production of IL-6 [10]: significant suppression
